Measured values reported in US12006321B2, “Substituted pyrazolo[1,5-a]pyrimidines as apelin receptor agonists” (Sanford Burnham Prebys Medical Discovery Institute, priority 2017, dated 2024).

Molecular target: T1, human apelin receptor (APJ, APLNR) (Homo sapiens, UniProt P35414)
T1 construct: host or cells: Chinese hamster ovary (CHO) cells, stably integrated receptor
T1 sequence (P35414 1-380): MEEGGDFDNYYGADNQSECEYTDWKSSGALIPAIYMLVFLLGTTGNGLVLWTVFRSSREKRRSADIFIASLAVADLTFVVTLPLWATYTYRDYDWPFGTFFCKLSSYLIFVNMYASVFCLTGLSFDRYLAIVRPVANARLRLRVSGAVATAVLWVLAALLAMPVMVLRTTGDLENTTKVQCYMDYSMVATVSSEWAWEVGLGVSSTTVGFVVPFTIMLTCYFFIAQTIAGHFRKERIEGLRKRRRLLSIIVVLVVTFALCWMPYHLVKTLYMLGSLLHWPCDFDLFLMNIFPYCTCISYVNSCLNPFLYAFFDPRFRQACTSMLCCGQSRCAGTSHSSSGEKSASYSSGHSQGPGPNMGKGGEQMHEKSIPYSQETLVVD
Assay: cell-based cAMP assay (TR-FRET) in Chinese hamster ovary cells expressing the apelin receptor
Details: EC50 = 50% of control (apelin-13, 1 nM) response; cAMP in CHO cells, 0.5 h incubation; read-out: Potency Category
Experimental: This example illustrates the biological activity of various compounds tested against the APJ receptor.
Commercially available cell lines were used to screen chemical libraries to identify compounds that potently and selectively activated the human apelin receptor. The assays disclosed herein were performed using cell lines from DiscoveX, Inc.
Biological activity was determined to the cell-based assay. This assay detects activation of the receptor by reporting on intracellular cyclic adenosine monophosphate (cAMP) level. Chinese hamster ovary cells engineered to express the stably integrated human appellant receptor (APJ, AGTRL-one, APLNR), pleaded into the wells of the microtiter plate. Cells were stimulated with […] to increase intracellular cyclic AMP. Immediately following, compounds were added to the range of final concentrations 0.0-100 μM, in DMSO (not to exceed a final DMSO concentration greater than 1% v/v), and allowed to incubate with the cells for 0.5 h. At the end of the incubation, cells were lysed to stop APJ signaling and cAMP was quantified using a commercially available competitive immunoassay kit that applies homogenous time-resolved florescence energy transfer (TR-FRET). The assay is based on the competition between a europium (Eu) chelate-labeled cAMP donor tracer and cellular cAMP for binding sites on a cAMP-specific monoclonal antibody labeled with an acceptor fluorophore. When antibodies are bound to the cAMP tracer light emissions at 320 nm stimulate the energy transfer from the donor to the acceptor, which in turn emits light at 665 nm. In the presence of competitive unlabeled cAMP (derived from the activity of the receptor or forskolin-stimulated production of cAMP), the labelled cAMP tracer is dissociated from the cAMP antibody, resulting in a loss of FRET signal. The amount of light emitted by the FRET is inversely proportional to the cAMP generated by the cell/receptor system. Potency and efficacy at APJ are reported in reference to the canonical APJ receptor agonist apelin-13 when tested at 1 nM.
Compound competency is reported as the effective concentration required to effect 50% (EC 50) of the control (apelin—13, 1 nM) response in micromole are (μM) units. Compound efficacy (% response) is reported as a percentage of the maximal apein-13 response at 1 nM (control). Potencies were calculated by fitting a four-point logistic curve to concentration response consisting of at least 10 discrete data points spanning effective range of the compounds in the cell-based assay that measures cAMP. In Table 1, the Potency Categories are A, B, C and D. Category A EC50>500 nM; Category B 200<EC50<500 nM; Category C 100<EC50<200 nM; Category D<100 nM.

`COc1cccc(F)c1-c1c(C)nn2c(C(C)C)cc(C(=O)O)nc12` [Compound 92, 3-(6-fluoro-2-methoxyphenyl)-2-methyl-7-(methylethyl)-8-hydropyrazolo[1,5-a]pyrimidine-5-carboxylic acid] and `COc1cccc(C)c1-c1c(C)nn2c(C(C)C)cc(C(=O)O)nc12` [Compound 76, 3-(2-methoxy-6-methylphenyl)-2-methyl-7-(methylethyl)-8-hydropyrazolo[1,5-a]pyrimidine-5-carboxylic acid] cannot be ordered by EC50: over 500 nM for the first, over 500 nM for the second.

`COc1ccc(-c2c(C)nn3c(C(C)C)cc(C(=O)O)nc23)cc1` [Compound 9, 3-(4-methoxyphenyl)-2-methyl-7-(methylethyl)-8-hydropyrazolo[1,5-a]pyrimidine-5-carboxylic acid] and `COc1ccccc1-c1c(C)nn2c(C(C)C)cc(C(=O)O)nc12` [Compound 31, 3-(2-methoxyphenyl)-2-methyl-7-(methylethyl)-8-hydropyrazolo[1,5-a]pyrimidine-5-carboxylic acid] cannot be ordered by EC50: over 500 nM for the first, over 500 nM for the second.

`COCc1nn2c(C(C)C)cc(C(=O)O)nc2c1-c1c(C)cccc1C` [Compound 89, 3-(2,6-dimethylphenyl)-2-(methoxymethyl)-7-(methylethyl)-8-hydropyrazolo[1,5-a]pyrimidine-5-carboxylic acid] and `CCc1nn2c(C(C)C)cc(C(=O)O)nc2c1-c1c(C)cccc1C` [Compound 74, 3-(2,6-dimethylphenyl)-2-ethyl-7-(methylethyl)-8-hydropyrazolo[1,5-a]pyrimidine-5-carboxylic acid] cannot be ordered by EC50: over 500 nM for the first, over 500 nM for the second.

`COC(=O)c1cc(N2CCCCC2)n2nc(C)c(-c3c(C)cccc3C)c2n1` [Compound 124, methyl 3-(2,6-dimethylphenyl)-2-methyl-7-piperidyl-8-hydropyrazolo[1,5-a]pyrimidine-5-carboxylate] and `Cc1cccc(C)c1-c1c(C)nn2c(C3CCCCC3)cc(C(=O)O)nc12` [Compound 155, 3-(2,6-dimethylphenyl)-7-cyclohexyl-2-methyl-8-hydropyrazolo[1,5-a]pyrimidine-5-carboxylic acid] cannot be ordered by EC50: over 500 nM for the first, over 500 nM for the second.

Compared with `CCOC(=O)c1cccc(C)c1-c1c(C)nn2c(C(C)C)cc(C(=O)O)nc12` [Compound 77, 3-[6-(ethoxycarbonyl)-2-methylphenyl]-2-methyl-7-(methylethyl)-8-hydropyrazolo[1,5-a]pyrimidine-5-carboxylic acid], `Cc1cccc(C)c1-c1c(C)nn2c(C(C)C)cc(C(=O)O)nc12` [Compound 41, 3-(2,6-dimethylphenyl)-2-methyl-7-(methylethyl)-8-hydropyrazolo[1,5-a]pyrimidine-5-carboxylic acid] is lower in EC50: 100 to 200 nM for the first, under 100 nM for the second. The second is the more potent here.

`CCCc1cc(C(=O)O)nc2c(-c3ccccc3)c(C)nn12` [Compound 36, 2-methyl-3-phenyl-7-propyl-8-hydropyrazolo[1,5-a]pyrimidine-5-carboxylic acid] and `Cc1nn2c(C)cc(C(=O)O)nc2c1-c1ccccc1` [Compound 4, 2,7-dimethyl-3-phenyl-8-hydropyrazolo[1,5-a]pyrimidine-5-carboxylic acid] cannot be ordered by EC50: over 500 nM for the first, over 500 nM for the second.

`COC(=O)c1cc(C(C)C)n2nc(C(=O)OC)c(-c3c(C)cccc3C)c2n1` [Compound 95, methyl 3-(2,6-dimethylphenyl)-2-(methoxycarbonyl)-7-(methylethyl)-8-hydropyrazolo[1,5-a]pyrimidine-5-carboxylate] and `Cc1cccc(C)c1-c1c(C(=O)O)nn2c(C(C)C)cc(C(=O)O)nc12` [Compound 96, 3-(2,6-dimethylphenyl)-7-(methylethyl)-8-hydropyrazolo[1,5-a]pyrimidine-2,5-dicarboxylic acid] cannot be ordered by EC50: over 500 nM for the first, over 500 nM for the second.

`Cc1cccc(C)c1-c1c(C)nn2c(Nc3ccc(C(F)(F)F)cc3)cc(C(=O)O)nc12` [Compound 143, 3-(2,6-dimethylphenyl)-2-methyl-7-{[4-(trifluoromethyl)phenyl]amino}-8-hydropyrazolo[1,5-a]pyrimidine-5-carboxylic acid] and `COC(=O)c1cc(Nc2ccc(C#N)cc2)n2nc(C)c(-c3c(C)cccc3C)c2n1` [Compound 138, methyl 3-(2,6-dimethylphenyl)-7-[(4-cyanophenyl)amino]-2-methyl-8-hydropyrazolo[1,5-a]pyrimidine-5-carboxylate] cannot be ordered by EC50: over 500 nM for the first, over 500 nM for the second.

`Cc1cccc(C)c1-c1c(-c2ccccc2)nn2c(C(C)C)cc(C(=O)O)nc12` [Compound 79, 3-(2,6-dimethylphenyl)-7-(methylethyl)-2-phenyl-8-hydropyrazolo[1,5-a]pyrimidine-5-carboxylic acid] and `CCc1cccc(C)c1-c1c(C)nn2c(C(C)C)cc(C(=O)O)nc12` [Compound 121, 3-(6-ethyl-2-methylphenyl)-2-methyl-7-(methylethyl)-8-hydropyrazolo[1,5-a]pyrimidine-5-carboxylic acid] cannot be ordered by EC50: over 500 nM for the first, over 500 nM for the second.

`CCOC(=O)c1cc(C(C)C)n2nc(C)c(-c3c(C)cccc3OC)c2n1` [Compound 65, ethyl 3-(6-methoxy-2-methylphenyl)-2-methyl-7-(methylethyl)-8-hydropyrazolo[1,5-a]pyrimidine-5-carboxylate] and `CCOC(=O)c1cc(C(C)C)n2nc(C)c(-c3c(F)cccc3OC)c2n1` [Compound 91, ethyl 3-(6-fluoro-2-methoxyphenyl)-2-methyl-7-(methylethyl)-8-hydropyrazolo[1,5-a]pyrimidine-5-carboxylate] cannot be ordered by EC50: over 500 nM for the first, over 500 nM for the second.

`CCOC(=O)c1cc(Nc2ccccc2)n2nc(C)c(-c3c(C)cccc3C)c2n1` [Compound 117, ethyl 3-(2,6-dimethylphenyl)-2-methyl-7-(phenylamino)-8-hydropyrazolo[1,5-a]pyrimidine-5-carboxylate] and `CCOC(=O)c1cc(C2CC2)n2nc(C)c(-c3c(C)cccc3C)c2n1` [Compound 59, ethyl 3-(2,6-dimethylphenyl)-7-cyclopropyl-2-methyl-8-hydropyrazolo[1,5-a]pyrimidine-5-carboxylate] cannot be ordered by EC50: over 500 nM for the first, over 500 nM for the second.

First: Cc1cccc(C)c1-c1c(C)nn2c(C3CCC3)cc(C(=O)O)nc12 [Compound 61, 3-(2,6-dimethylphenyl)-7-cyclobutyl-2-methyl-8-hydropyrazolo[1,5-a]pyrimidine-5-carboxylic acid]
Second: CCc1cc(C(=O)O)nc2c(-c3c(C)cccc3C)c(C)nn12 [Compound 72, 3-(2,6-dimethylphenyl)-7-ethyl-2-methyl-8-hydropyrazolo[1,5-a]pyrimidine-5-carboxylic acid]
The EC50 of the first is lower: 100 to 200 nM for the first, over 500 nM for the second.

`CCOC(=O)c1cc(C(C)C)n2nc(C)c(-c3cccc(C)c3)c2n1` [Compound 27, ethyl 2-methyl-7-(methylethyl)-3-(3-methylphenyl)-8-hydropyrazolo[1,5-a]pyrimidine-5-carboxylate] and `COC(=O)c1cc(C(C)(C)C)n2nc(C)c(-c3ccccc3)c2n1` [Compound 1, methyl 7-(tert-butyl)-2-methyl-3-phenyl-8-hydropyrazolo[1,5-a]pyrimidine-5-carboxylate] cannot be ordered by EC50: over 500 nM for the first, over 500 nM for the second.

`Cc1cccc(C)c1-c1c(C)nn2c(C3=CCCCC3)cc(C(=O)O)nc12` [Compound 154, 3-(2,6-dimethylphenyl)-7-cyclohex-1-enyl-2-methyl-8-hydropyrazolo[1,5-a]pyrimidine-5-carboxylic acid] and `Cc1cccc(C)c1-c1c(C)nn2c(C3=CCNCC3)cc(C(=O)O)nc12` [Compound 158, 3-(2,6-dimethylphenyl)-2-methyl-7-(4-1,2,5,6-tetrahydropyridyl)-8-hydropyrazolo[1,5-a]pyrimidine-5-carboxylic acid] cannot be ordered by EC50: over 500 nM for the first, over 500 nM for the second.

`Cc1ccc(N(C)c2cc(C(=O)O)nc3c(-c4c(C)cccc4C)c(C)nn23)cc1` [Compound 150, 3-(2,6-dimethylphenyl)-2-methyl-7-[methyl(4-methylphenyl)amino]-8-hydropyrazolo[1,5-a]pyrimidine-5-carboxylic acid] gave an EC50 of over 500 nM.
